# Experimental data reported in US20070059264A1, “Reduction of hair growth” (priority 2005, published 2007).
# Tested on: axillary (armpit) hair growth
# Experiment: Axillary hair growth reduction in human subjects (hair length by image analysis)
# Assay type: in vivo
# Conditions: for Hair Length (μm): Example 1 including 3% DFMO once a day to armpit, six human subjects; for % Reduction (hair length): Example 1 including 3% DFMO vs Right Guard roll-on vehicle
# Description: Example 1, including 3% DFMO, was tested in six human subjects to determine the effectiveness of the composition for reducing hair growth. The composition was applied once a day to one armpit in a subject; Right Guard® roll-on product was applied once daily to the other armpit. The hair length measurements were made at select time intervals using a semi automated image analysis system. For these measurements, the subjects shaved both armpits and then digital images of the treatment areas (DFMO and Vehicle) were taken at 24, 48, and 72 hr later. The number of hairs measured per site ranged from 58 to 87.
# The results after six weeks and 16 weeks are shown below.
# [1] = after 6 weeks, 24 Hrs after shaving
# [2] = after 6 weeks, 48 Hrs after shaving
# [3] = after 6 weeks, 72 Hrs after shaving
# [4] = after 16 weeks, 24 Hrs after shaving
# [5] = after 16 weeks, 48 Hrs after shaving
# [6] = after 16 weeks, 72 Hrs after shaving
compound,measurement,setting,value
"NCCCC(N)(C(=O)O)C(F)F (stereo not drawn) [DFMO, α-Difluoromethylomithine]",Hair Length (μm),[1],274 ± 15 μm
same,% Reduction (hair length),[1],48 ± 3%
same,Hair Length (μm),[2],509 ± 26 μm
same,% Reduction (hair length),[2],49 ± 3%
same,Hair Length (μm),[3],867 ± 34 μm
same,% Reduction (hair length),[3],46 ± 2%
same,Hair Length (μm),[4],170 ± 16 μm
same,% Reduction (hair length),[4],66 ± 3%
same,Hair Length (μm),[5],273 ± 23 μm
same,% Reduction (hair length),[5],73 ± 3%
same,Hair Length (μm),[6],326 ± 24 μm
same,% Reduction (hair length),[6],75 ± 2%
